Data reported in PubChem BioAssay AID488890 (Southern Research Specialized Biocontainment Screening …, 2010).
Inconclusive results are not listed. The source made the active and inactive calls. How the calls were made is not given here.

test system: Mycobacterium tuberculosis non-replicating, growth inhibition; test: growth inhibition of non-replicating M. tuberculosis (AID 488890)

SMILES | IC50
O=C(C/C=N\OCc1ccc([N+](=O)[O-])cc1)Nc1ccc(F)cc1F | 9.1 µM
O=C(COC(=O)CCc1c[nH]c2ccccc12)NCc1ccc2c(c1)OCO2 | 9.66 µM
COC(=O)C1=C(C)N(Cc2ccccc2)C(=NCc2ccccc2)N[C@H]1c1cccc(F)c1 | 6.37 µM
Cc1ccccc1C(=O)Nc1nnc(-c2ccco2)o1 | 4.97 µM
Cc1cc2ncn(/N=C/c3ccc([N+](=O)[O-])s3)c2cc1C | 1.09 µM
Cc1cc(C)n(CC(=O)N/N=C/c2ccc([N+](=O)[O-])s2)n1 | 24.4 µM (inactive)
Cc1ccc(/C=C2/C(=O)NC(=O)N(CCc3ccc(F)cc3)C2=O)s1 | 16.7 µM (inactive)
CCOC(=O)C1CCN(Cc2ccc(-c3ccccc3)cc2)CC1 | 44 µM (inactive)
COc1ccc(OC(=O)c2cc3ccccc3o2)cc1 | 18.4 µM (inactive)
CC(C)(C)/C(O)=C/c1nc2ccccc2oc1=O | 6.85 µM
CCC(CC)c1nnc(NC(=O)c2ccc3ccccc3n2)s1 | 4.02 µM
Cc1cc(NC(=O)c2cc([N+](=O)[O-])cc([N+](=O)[O-])c2)no1 | 17.3 µM (inactive)
Cc1[nH]n(S(=O)(=O)Cc2ccccc2)c(=O)c1N=Nc1ccccc1Cl | 4.72 µM
CCOC(=O)COc1ccc(C(=O)NC2CCCCC2)cc1 | 4.04 µM
O=C(NCc1cccs1)c1cc(-c2ccc(O)cc2)on1 | 23.3 µM (inactive)
O=C(NC(=S)N1CCN(C/C=C/c2ccccc2)CC1)c1ccco1 | 36.1 µM (inactive)
Cc1cc(C)c2ccc(/C=N/O)nc2c1O | 5.77 µM
O=C(NN=C1C2CC3CC1CC(Cl)(C3)C2)c1cccs1 | 23.7 µM (inactive)
CN1C(=O)/C(=C/c2cccc(Cl)c2)Sc2ccc(C(=O)N3CCCC3)cc21 | 22 µM (inactive)
CC(C)(C)c1ccc(C(=O)Nc2nnc(C3=COCCO3)o2)cc1 | 3.07 µM
COc1ccc(-n2c3c(cc(C(=O)NNc4ccccc4)c2=O)C(=O)CC(C)(C)C3)cc1 | 17.8 µM (inactive)
O=C(CCSc1ccc(Cl)cc1)Nc1cccnc1 | > 50 µM (inactive)
CCCCn1nnc(NC(=O)COc2ccc(Cl)c(C)c2)n1 | 7.56 µM

SMILES | IC50
Cc1ccnc(NC(=O)c2cc3ccccc3o2)c1 | 4.74 µM
O=C(CN1CCOCC1)N/N=C/c1ccc(-c2ccc(Br)cc2)o1 | 4.3 µM
O=C(NNC(=S)NC(=O)c1cn(-c2ccccc2)nc1-c1ccccc1)c1ccncc1 | 21.9 µM (inactive)
CSc1ccccc1NC(=O)c1cc(C(C)C)on1 | 22.2 µM (inactive)
CCOC(=O)COn1c(-c2cccc(Cl)c2)nc2ccc([N+](=O)[O-])cc21 | 19.6 µM (inactive)
COc1ccc(OCC(=O)NNC(=O)c2ccccn2)cc1 | 11.3 µM (inactive)
C/C(=N/NC(=O)c1cccc(C)c1)c1c(O)cc(C)oc1=O | 9.19 µM
CCCCCn1nnc2c(=O)oc3ccccc3c21 | 1.2 µM
O=C(COc1ccc2ccccc2c1)Nc1ccncc1 | 3.17 µM
C=CCn1c(NC(=O)c2ccccc2)nc2ccccc21 | 21.6 µM (inactive)
COc1ccc(NC(=O)COc2ccccc2)cc1Cl | 22.2 µM (inactive)
Cc1ccc(C(=O)c2cncc(Br)c2)cc1 | 9.3 µM
CCCN(Cc1nnc(-c2ccccc2Cl)o1)C(=O)c1cc([N+](=O)[O-])cc([N+](=O)[O-])c1 | 5.83 µM
CCS(=O)(=O)c1c([N+](=O)[O-])ncn1C | 19.5 µM (inactive)
Cc1cc(C)cc(OCC(=O)N/N=C/c2ccc([N+](=O)[O-])o2)c1 | 1.36 µM
C/C(=N\NC(=O)c1ccccc1OCc1ccc(F)cc1)c1ccccn1 | 2.82 µM
CC(C)CCCn1c(O)c(/C=C2/C=CC=N2)c(=O)[nH]c1=O | 0.27 µM
O=C(COc1ccc(F)cc1)Nc1ccc2c(c1)OCCO2 | 6.38 µM
Cc1ccn2c(Nc3ccccc3)c(-c3ccccn3)nc2c1 | 10.4 µM (inactive)
COc1ccc(/C=C/c2nc3ccccc3c(=O)o2)cc1 | 2.74 µM
COc1cccc(NC(=O)c2ccc(-c3ccc([N+](=O)[O-])cc3)o2)c1 | 1.2 µM
Cc1cccc2nc(-c3cccnc3)c(NCCC(C)C)n12 | 16.1 µM (inactive)
CC1=NN(C(=O)COc2ccccc2C)C(O)(c2ccc(Cl)cc2)C1 (stereo not drawn) | 1.4 µM

SMILES | IC50
COc1cc(OC)cc(OC(=O)c2ccc3c(=O)n4c(nc3c2)CCC4)c1 | 4.95 µM
CN1c2ccsc2/C(=N/Nc2ccccc2)CS1(=O)=O | 0.29 µM
O=C1c2cccc3c([N+](=O)[O-])ccc(c23)C(=O)N1c1ccccn1 | 4.86 µM
COC(=O)C1=C(C)N(CC2CC2)C(=NCc2cccc(Cl)c2)N[C@H]1c1ccccc1 | 10.5 µM (inactive)
Cc1ccc2nc(C)c3c(c2c1)COC3 | 29.8 µM (inactive)
CCC1CCc2sc(C(=O)NNC(=O)c3ccncc3)cc2C1 (stereo not drawn) | 1.97 µM
CCCCSc1nnc(-c2cc(Br)ccc2N)c(=O)[nH]1 | 12.6 µM (inactive)
CCCc1cc(=O)n2[nH]c(C)c(-c3ccccc3)c2n1 | 11.4 µM (inactive)
CCOC(=O)Cn1cc(C#N)c2cccc(CC)c21 | 9.18 µM
C/C(=N\Nc1nc2ccccc2[nH]1)c1ccc(N2CCOCC2)cc1 | 10.5 µM (inactive)
O=C(Nc1cccc(Cl)c1N1CCCC1)c1ccc([N+](=O)[O-])o1 | 12 µM (inactive)
CN(CCS(=O)(=O)c1ccc(Cl)cc1)Cc1cccnc1 | 13.2 µM (inactive)
Cc1ccccc1C(=O)NN1CC(C(=O)OCc2ccc(Cl)c(Cl)c2)CC1=O (stereo not drawn) | 14.1 µM (inactive)
C=CCn1c(O)c(C2=c3ccccc3=NC2=O)c2ccccc21 | 2.68 µM
COc1cccc(CNCCc2c[nH]c3ccccc23)c1OCc1ccc(F)cc1 | 16.9 µM (inactive)
CN1C(=O)NC(=O)/C(=C/c2ccc([N+](=O)[O-])s2)C1=O | 10.3 µM (inactive)
c1ccc(CNCCC(Cc2ccccc2)c2ccco2)cc1 (stereo not drawn) | 21.6 µM (inactive)
O=[N+]([O-])c1cc(Cl)cc(/C=N\Nc2ccccn2)c1O | 1.18 µM
Cc1cc(N/N=C/c2ccccc2[N+](=O)[O-])nc(-n2nc(C)cc2C)n1 | 1.96 µM
CCCCCn1c(=O)c2ccccc2n2c(CCl)nnc12 | 0.72 µM
CCCCNC(=O)Cc1ccc(C)cc1 | 5.46 µM
CCOC(=O)c1csc(COc2ccccc2Cl)n1 | 1.57 µM
Cc1cc(C)n(-c2nc(NCCCO)c3c4c(sc3n2)CCCC4)n1 | 10.5 µM (inactive)

SMILES | IC50
N=c1oc2ccccc2cc1C(=O)Nc1ccccc1 | 33 µM (inactive)
O=C1c2cccc3cc([N+](=O)[O-])cc(c23)C(=O)N1c1ccccc1O | 15.1 µM (inactive)
CCOC(=O)c1ccc(-n2c(CCC(=O)O)ccc2-c2cccs2)cc1 | 36.2 µM (inactive)
CC(C)(C)NC(=O)C(=O)NNC(=O)COc1ccc(Br)cc1 | 12 µM (inactive)
Cc1cc(C)n2nc(N)c(N=Nc3ccccc3)c2n1 | 5.87 µM
O=C(CCS(=O)(=O)c1ccc(F)cc1)Nc1nc(-c2ccccn2)cs1 | 7.41 µM
O=[N+]([O-])c1cccnc1N/N=C/c1ccccc1O | 2.87 µM
CN(CCCCOc1ccc(F)cc1)Cc1ccccc1 | 22.9 µM (inactive)
COc1cc(CNCCc2c[nH]c3ccccc23)ccc1OCc1ccc(F)cc1 | 11.5 µM (inactive)
Oc1ccc(F)c2cccnc12 | 1.61 µM
O=C1NC(=O)N(Cc2ccco2)C(=O)/C1=C\c1cccn1CCOc1ccc(Cl)cc1 | 7.42 µM
COc1ccc(N2C(=O)C(F)(F)C2c2cccc(F)c2)cc1 (stereo not drawn) | 2.15 µM
O=C(O)c1ccc(NS(=O)(=O)/C=C/c2ccccc2)cc1O | 3.11 µM
Cc1ccc(Oc2c(C(N)=O)cc([N+](=O)[O-])cc2[N+](=O)[O-])cc1 | 2.2 µM
Cc1nnc(N/N=C/c2ccc(Br)cc2)n1N | 1.29 µM
Cc1ccc(C(=O)Nc2nccs2)cc1 | 19.8 µM (inactive)
O=Cc1coc2ccc3ccccc3c2c1=O | 16.3 µM (inactive)
CC(C)c1cc(C(=O)N/N=C/C=C/c2ccccc2)n[nH]1 | 27 µM (inactive)
CC1(c2nnc(-c3ccccc3)o2)CC(c2ccc(Cl)cc2)=NO1 (stereo not drawn) | 1.52 µM
CCOc1ccc(CC(=O)N2N=C(C)CC2(O)C(F)(F)F)cc1 (stereo not drawn) | 13.3 µM (inactive)
Cn1c(-c2cccc([N+](=O)[O-])c2)cnc1NCc1cccc(F)c1 | 29.3 µM (inactive)
Cc1onc(-c2ccccc2)c1C(=O)O/N=C(\N)c1ccc([N+](=O)[O-])o1 | 25.8 µM (inactive)
O=C(OCC(=O)C12CC3CC(CC(C3)C1)C2)c1ccccn1 | 9.38 µM

SMILES | IC50
CCOc1cccc2cc(C(=O)Nc3nccs3)c(=O)oc12 | 2.26 µM
O=C(OCC(=O)N1CCCc2ccccc21)c1ccc(S(=O)(=O)C(F)F)cc1 | 20.5 µM (inactive)
Oc1c(Cl)cc(CN2CCOCC2)c2cccnc12 | 2.53 µM
COC(=O)c1ccccc1NC(=O)C1CC(c2ccc(F)cc2)=NO1 (stereo not drawn) | 10.2 µM (inactive)
C/C(=N\Nc1nc2ccccc2nc1C)c1ccccc1O | 1.65 µM
Cc1ccc(C(=O)O/N=C(\N)c2cccc([N+](=O)[O-])c2)cc1 | 7 µM
Cn1cnc([N+](=O)[O-])c1S(=O)(=O)c1cccc(Cl)c1 | 4.5 µM
Cc1cc(-c2n[nH]c(=S)n2/N=C/C(Br)=C/c2ccccc2)n[nH]1 | 19.8 µM (inactive)
Cc1cc2nc(/N=C(\N)NC(=O)C(C)C)nc(C)c2cc1C | 3.1 µM
Cc1cccc(NC(=O)COc2ccc(Br)cc2)n1 | 7.08 µM
CC(C)c1ccc(C2=C(O)c3ccccc3C(=O)C2=O)cc1 | 3.7 µM
Cc1cccc(Nc2nc(-c3ccccn3)cs2)n1 | 0.95 µM
O=C(N/N=C/c1ccc([N+](=O)[O-])s1)c1ccncc1 | 1.77 µM
COC(=O)COc1ccc2c(-c3cccc([N+](=O)[O-])c3)cc(=O)oc2c1 | 1.84 µM
CC(C)(C)c1cc(CN2CCC(O)CC2)cc(C(C)(C)C)c1O | 6.92 µM
O=c1c2cc(Cl)ccc2nc(-c2ccc(Cl)c(Cl)c2)n1O | < 0.1 µM
Cc1ccc(C(=O)N/N=C/c2ccc([N+](=O)[O-])s2)cc1 | 2.14 µM
CCCCCC1CC(CC(=O)NC(=S)Nc2ccc([N+](=O)[O-])cc2)C(=O)O1 (stereo not drawn) | 6.68 µM
Brc1ccc(-c2ccc(CNCc3ccccn3)o2)cc1 | 1.12 µM
C=C[C@]1(C)C=C2CCC3[C@](C)(CCC[C@@]3(C)C(=O)O)C2CC1 (stereo partly drawn) | 6.33 µM
Cc1cccc(NCc2nnc(-c3ccccc3)o2)c1C | 4.9 µM
